Series [1] addresses T1, sex hormone binding globulin (SHBG) (Homo sapiens, UniProt P04278).
T1 sequence (P04278 30-402): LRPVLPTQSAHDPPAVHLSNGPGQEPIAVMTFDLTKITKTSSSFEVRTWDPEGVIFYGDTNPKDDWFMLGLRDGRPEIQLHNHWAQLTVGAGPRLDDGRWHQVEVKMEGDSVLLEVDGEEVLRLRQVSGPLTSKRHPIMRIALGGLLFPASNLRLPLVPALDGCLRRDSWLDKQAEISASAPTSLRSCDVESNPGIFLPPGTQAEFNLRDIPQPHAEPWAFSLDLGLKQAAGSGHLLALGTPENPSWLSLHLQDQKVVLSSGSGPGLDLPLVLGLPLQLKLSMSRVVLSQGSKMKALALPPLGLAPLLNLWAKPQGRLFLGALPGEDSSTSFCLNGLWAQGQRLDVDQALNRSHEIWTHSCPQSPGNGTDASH
Conditions: cited from earlier work.

Series [2] in a line: Solubility of testosterone in water, oils, solvents and vehicles.
For series [3] the following is noted: nasal, cited from earlier work.
For series [4] the following is noted: dissolved in polyethylene glycol (200 mg/ml); high variations; cited from earlier work.
The conditions of series [5]: nasal, cited from earlier work. The source holds these as a separate data set.

Structures are written as SMILES. Like-named read-outs stand apart in the source and are kept apart here.

Regarding `C[C@]12CC[C@H]3[C@@H](CCC4=CC(=O)CC[C@@]43C)[C@@H]1CC[C@@H]2O` [Testosterone], the “fraction remaining unbound (free)” value in series [1] (in men) is on record as “about 2%”. Also, the “fraction remaining unbound (free)” value in series [1] (in women) was “up to 3%”. For the same compound, in series [2], the “amount dissolved by diethyleneglycol ethyl ether alone” value is recorded as “more than 10%”, the “amount dissolved by dimethyl isosorbide (DMI)” value was “more than 12%” and the “testosterone levels in the gel allowed by DMI with the other excipients” value is “at least 8.0%”. Also, the “testosterone solubility in the oil based gel” value in series [2] (oil based TBS-1A gel as printed) is recorded as not above 4.5%.

Regarding `CC(=O)[C@H]1CC[C@H]2[C@@H]3CCC4=CC(=O)CC[C@]4(C)[C@H]3CC[C@]12C` [progesterone], in series [3] (co-ground and co-lyophilized progesterone/cyclodextrin powder mixtures), the Tmax is 2 to 5 min. For the same compound, the “time of serum level decrease” value in series [3] (progesterone/cyclodextrin powder mixtures) is recorded as not above 20 min. The “duration of serum level” value in series [4] is “at least 8 hours”.

For the compound `CN(C)CC(=O)O[C@H]1CC[C@H]2[C@@H]3CCC4=CC(=O)CC[C@]4(C)[C@H]3CC[C@]12C` [testosterone 17β-N,N-dimethylglycinate], the results for the “time to peak plasma concentration” value in series [5] (25 mg dose) and in series [5] (50 mg dose) were not above 12 min and not above 20 min, respectively.

As usually defined, the Tmax is the time from dosing to the highest level.

The values are drawn from US20150297733A1 (TRIMEL BIOPHARMA SRL, priority 2012, published 2015).
